Results reported in article PMC6941823, “A dispensable paralog of succinate dehydrogenase subunit C mediates standing resistance towards a subclass of SDHI fungicides in Zymoseptoria tritici” (PLoS Pathogens, 2019).
Like-named read-outs stand apart in the source and are kept apart here.

Key:
[1] = test system: SQR (SDHC / altC) of IPO323 pTet::SDHC3 transformant, induced; assay: Succinate-quinone (SQR) SDHI sensitivity assay on purified mitochondria, IPO323 pTet::SDHC3 induced; assay type: biochemical, Zymoseptoria tritici; conditions: for RF (resistance factor), pTet Induced (SDHC / altC): IC50 ratio compared to IPO323 values; for IC50: IPO323 pTet::SDHC3 transformant grown in the absence of doxycycline, mean of three ± SD
Protocol: (§1) Succinate-ubiquinone oxidoreductase (SQR) inhibition assays were performed on mitochondrial extracts from a panel of strains that were (i) either carrying a unique C-subunit encoding gene (ZtSDHC1, ZtSDHC1_A84I or Zt-SDHC3), or (ii) carrying two C-subunit encoding genes ZtSDHC1 and ZtSDHC3 (Table 1).
(§2) Biomass production, mitochondrial extraction and purification were performed as described in [14]. Succinate: ubiquinone/DCPIP sensitivity tests were performed as described in [14] with minor modification.

[2] = molecular target: SQR (SDHC) of D024 SDHC3 KO mitochondria (Zymoseptoria tritici, UniProt F9X9V6+F9XH52+O42772); assay: Succinate-quinone (SQR) SDHI sensitivity assay on purified mitochondria, 06STD024 SDHC3 KO; assay type: biochemical; conditions: for RF (resistance factor), D024 SDHC3 KO (SDHC): IC50 ratio compared to IPO323 values; for IC50: mitochondria of 06STD024 ZtSDHC3 deletion mutant, mean of three ± SD
Sequence of SQR (SDHC) of D024 SDHC3 KO mitochondria (F9XH52 44-187): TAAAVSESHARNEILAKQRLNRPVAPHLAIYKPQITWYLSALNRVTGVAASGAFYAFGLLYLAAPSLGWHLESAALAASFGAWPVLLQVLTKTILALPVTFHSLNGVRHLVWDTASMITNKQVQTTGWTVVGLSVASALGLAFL
Sequence of SQR (SDHC) of D024 SDHC3 KO mitochondria (O42772 19-297): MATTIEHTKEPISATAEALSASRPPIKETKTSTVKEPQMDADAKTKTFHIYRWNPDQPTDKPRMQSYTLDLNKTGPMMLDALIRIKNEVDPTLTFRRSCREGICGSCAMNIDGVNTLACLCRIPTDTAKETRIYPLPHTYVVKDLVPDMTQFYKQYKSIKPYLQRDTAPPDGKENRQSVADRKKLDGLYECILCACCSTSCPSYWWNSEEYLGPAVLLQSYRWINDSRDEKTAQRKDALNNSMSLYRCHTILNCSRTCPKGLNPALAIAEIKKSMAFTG
Sequence of SQR (SDHC) of D024 SDHC3 KO mitochondria (F9X9V6 1-193): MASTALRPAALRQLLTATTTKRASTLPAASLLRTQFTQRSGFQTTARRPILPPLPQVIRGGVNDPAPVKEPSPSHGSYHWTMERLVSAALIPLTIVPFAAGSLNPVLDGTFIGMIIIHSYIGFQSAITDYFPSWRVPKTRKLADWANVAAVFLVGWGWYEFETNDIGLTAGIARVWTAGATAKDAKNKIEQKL
Sequence of SQR (SDHC) of D024 SDHC3 KO mitochondria (F9WWR1 29-643 partner): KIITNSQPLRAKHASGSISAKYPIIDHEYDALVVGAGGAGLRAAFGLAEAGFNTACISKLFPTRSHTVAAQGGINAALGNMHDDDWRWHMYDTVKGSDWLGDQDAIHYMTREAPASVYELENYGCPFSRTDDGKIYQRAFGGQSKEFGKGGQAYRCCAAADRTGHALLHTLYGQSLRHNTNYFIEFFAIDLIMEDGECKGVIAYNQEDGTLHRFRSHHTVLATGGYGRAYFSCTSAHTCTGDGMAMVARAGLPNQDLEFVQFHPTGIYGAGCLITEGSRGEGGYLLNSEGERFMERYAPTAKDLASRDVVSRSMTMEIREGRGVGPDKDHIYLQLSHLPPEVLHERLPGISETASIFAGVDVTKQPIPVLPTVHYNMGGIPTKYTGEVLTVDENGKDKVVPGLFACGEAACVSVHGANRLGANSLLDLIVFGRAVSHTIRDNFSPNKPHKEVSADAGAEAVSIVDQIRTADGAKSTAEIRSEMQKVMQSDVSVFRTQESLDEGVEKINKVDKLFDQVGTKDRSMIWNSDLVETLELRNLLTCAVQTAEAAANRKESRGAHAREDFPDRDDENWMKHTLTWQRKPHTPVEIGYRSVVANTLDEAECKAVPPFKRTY
Protocol: as §1
(§3) Biomass production, mitochondrial extraction and purification were performed as described in [14]. Succinate: ubiquinone/DCPIP sensitivity tests were performed as described in [14] with minor modification. The different mitochondrial suspensions were adjusted to similar initial velocity (1 OD595nm hour^-1) and inhibitor concentrations ranged between 0.047nM and 50μM with uniform 4x dilution steps (11 concentrations + DMSO control). Calculated absorbance slopes (OD/min) were used for IC50 calculations using GraphPad Prism 6.07 software non-linear curve fitting against log inhibitor concentrations.

[3] = test system: Zymoseptoria tritici field and genetically modified strains; assay: Liquid culture assay for fungicide sensitivity determination; assay type: cell-based; conditions: liquid culture sensitivity, read-out: EC50 (nM) Mean
Protocol: Sensitivity towards commercial fungicides was determined for a set of 99 SHA-SDHI-naïve Z. tritici field isolates sampled in Europe between 2006 and 2009. The EC50 of these isolates was determined in liquid growth assays and the data obtained compared for each possible pair of SDHI fungicides (cross-resistance (XR) plots, Fig 1). […] Comparative succinate-quinone reductase (SQR) enzyme inhibition tests were performed with mitochondria extracted from a panel of SHA-SDHIs tolerant and sensitive isolates.
In order to characterize in more depth the mechanisms driving sensitivity differences across the isolates, a subset of eight isolates carrying the ZtSDHC3 gene was analyzed for their sensitivity to SDHIs, alt-SDHC expression and splicing patterns. Liquid culture growth sensitivity tests were performed to determine EC50s for this set of isolates towards a wide range of commercial and research SDHIs (S5 Table).
Pre-culture of the inoculum and fungicide sensitivity tests were performed following previously described procedures. Different ranges of inhibitor concentrations were used for population monitoring and for the detailed phenotyping of a selected set of individual field isolates and genetically modified strains. For fungicide sensitivity monitoring of European field populations, final inhibitors concentrations were between 100 mg.L^-1 and 0.0001 mg.L^-1 with uniform 10x dilution steps (7 inhibitor concentrations + DMSO control). For refined sensitivity analysis of a smaller panel of isolates final inhibitor concentrations ranged between 0.5 mM and 0.47 nM with uniform 4x dilution factor steps (11 inhibitor concentrations+ DMSO control).

[4] = molecular target: WT-SQR (SDHC), IPO323 mitochondria (Zymoseptoria tritici, UniProt F9X9V6+F9XH52+O42772); assay: Succinate-quinone (SQR) SDHI sensitivity assay on purified mitochondria, IPO323; assay type: biochemical; conditions: mitochondria of IPO323; mean of three determinations ± SD; read-out: Succinate-quinone IC50, IPO323 (SDHC)
Protocol: as §1, §3

[5] = molecular target: SQR (SDHC / altC) of IPO323 pTet::SDHC3 transformant, repressed (Zymoseptoria tritici, UniProt A0A1X7RQW2+F9X9V6+F9XH52+O42772); assay: Succinate-quinone (SQR) SDHI sensitivity assay on purified mitochondria, IPO323 pTet::SDHC3 repressed; assay type: biochemical; conditions: for RF (resistance factor), pTet Repressed (SDHC / altC): IC50 ratio compared to IPO323 values; for IC50: IPO323 pTet::SDHC3 transformant grown in presence of 30 mg.L^-1 doxycycline, mean of three ± SD
Sequence of SQR (SDHC / altC) of IPO323 pTet::SDHC3 transformant, repressed (F9XH52 44-187): as the sequence (F9XH52 44-187) above
Sequence of SQR (SDHC / altC) of IPO323 pTet::SDHC3 transformant, repressed (O42772 20-297): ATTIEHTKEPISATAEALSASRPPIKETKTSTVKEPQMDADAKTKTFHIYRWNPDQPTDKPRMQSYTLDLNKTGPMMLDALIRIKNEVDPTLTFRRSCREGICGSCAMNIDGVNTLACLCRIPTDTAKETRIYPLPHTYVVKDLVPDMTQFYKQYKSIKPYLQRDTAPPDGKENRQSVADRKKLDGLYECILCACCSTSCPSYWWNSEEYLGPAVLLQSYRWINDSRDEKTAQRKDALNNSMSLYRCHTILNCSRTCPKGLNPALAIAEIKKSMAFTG
Sequence of SQR (SDHC / altC) of IPO323 pTet::SDHC3 transformant, repressed (F9X9V6 1-193): as the sequence (F9X9V6 1-193) above
Sequence of SQR (SDHC / altC) of IPO323 pTet::SDHC3 transformant, repressed (A0A1X7RQW2 36-181): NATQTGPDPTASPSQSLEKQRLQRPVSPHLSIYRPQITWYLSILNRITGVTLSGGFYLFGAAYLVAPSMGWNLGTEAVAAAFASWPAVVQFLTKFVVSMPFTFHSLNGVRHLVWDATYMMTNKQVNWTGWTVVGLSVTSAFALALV
Sequence of SQR (SDHC / altC) of IPO323 pTet::SDHC3 transformant, repressed (F9WWR1 41-643 partner): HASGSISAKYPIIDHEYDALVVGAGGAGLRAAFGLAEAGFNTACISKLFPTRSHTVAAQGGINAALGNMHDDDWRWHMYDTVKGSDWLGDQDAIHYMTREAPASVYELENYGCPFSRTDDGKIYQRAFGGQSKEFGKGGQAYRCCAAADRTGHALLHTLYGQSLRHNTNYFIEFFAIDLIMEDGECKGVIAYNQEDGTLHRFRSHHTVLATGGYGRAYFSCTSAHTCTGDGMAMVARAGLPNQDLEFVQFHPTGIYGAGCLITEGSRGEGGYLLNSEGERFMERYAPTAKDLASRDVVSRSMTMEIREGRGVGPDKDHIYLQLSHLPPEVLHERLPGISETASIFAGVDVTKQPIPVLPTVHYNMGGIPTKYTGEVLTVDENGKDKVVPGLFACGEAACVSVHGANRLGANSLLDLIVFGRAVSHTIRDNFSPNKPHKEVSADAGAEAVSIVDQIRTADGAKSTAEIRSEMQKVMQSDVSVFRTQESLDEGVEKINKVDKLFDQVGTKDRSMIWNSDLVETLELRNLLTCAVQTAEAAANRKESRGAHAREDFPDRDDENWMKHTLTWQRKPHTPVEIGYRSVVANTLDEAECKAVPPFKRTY
Protocol: as §1, §2

[6] = molecular target: altC-SQR (altC) of D024 SDHC1 KO mitochondria (Zymoseptoria tritici, UniProt A0A1X7RQW2+F9X9V6+O42772); assay: Succinate-quinone (SQR) SDHI sensitivity assay on purified mitochondria, 06STD024 SDHC1 KO; assay type: biochemical; conditions: for RF (resistance factor), D024 SDHC1 KO (altC): IC50 ratio compared to IPO323 values; for IC50: mitochondria of 06STD024 ZtSDHC1 deletion mutant (pure altC-SQR), mean of three ± SD
Protocol: as §1, §2

[7] = molecular target: C_A84I-SQR (SDHC_A84I), IPO323_Flu21 mitochondria (Zymoseptoria tritici, UniProt F9X9V6+F9XH52+O42772, A84I); assay: Succinate-quinone (SQR) SDHI sensitivity assay on purified mitochondria, IPO323_Flu21; assay type: biochemical; conditions: for RF (resistance factor), IPO323_Flu21 (SDHC_A84I): IC50 ratio compared to IPO323 values; for IC50: mitochondria of UV mutant IPO323_Flu21, mean of three ± SD
Sequence of C_A84I-SQR (SDHC_A84I), IPO323_Flu21 mitochondria (F9XH52 44-187, stated change not applied): as the sequence (F9XH52 44-187) above
Sequence of C_A84I-SQR (SDHC_A84I), IPO323_Flu21 mitochondria (O42772 19-297, stated change not applied): as the sequence (O42772 19-297) above
Sequence of C_A84I-SQR (SDHC_A84I), IPO323_Flu21 mitochondria (F9X9V6 whole entry, stated change not applied): as the sequence (F9X9V6 1-193) above
Sequence of C_A84I-SQR (SDHC_A84I), IPO323_Flu21 mitochondria (F9WWR1 29-643 partner): as the sequence (F9WWR1 29-643 partner) above
Protocol: as §1, §3

[8] = molecular target: SQR of 06STD024 (SDHC / altC) mitochondria (Zymoseptoria tritici, UniProt A0A1X7RQW2+F9X9V6+F9XH52+O42772); assay: Succinate-quinone (SQR) SDHI sensitivity assay on purified mitochondria, 06STD024; assay type: biochemical; conditions: for RF (resistance factor), 06STD024 (SDHC / altC): IC50 ratio compared to IPO323 values; for IC50: mitochondria of field isolate 06STD024, mean of three ± SD
Protocol: as §1, §2

Structure (SMILES)	RF (resistance factor), pTet Induced (SDHC / altC) [1]	IC50 [1] [nM]	RF (resistance factor), D024 SDHC3 KO (SDHC) [2]	IC50 [2] [nM]	EC50 ([3]; strain 06STD024) [nM]	EC50 ([3]; strain 07STGB009) [nM]	EC50 ([3]; strain 09STD041) [nM]	EC50 ([3]; strain 09STD053) [nM]	EC50 ([3]; strain 09STF011) [nM]	EC50 ([3]; strain 09STF037) [nM]	EC50 ([3]; strain 09STF112) [nM]	EC50 ([3]; strain 09STIR20.3) [nM]	EC50 ([3]; strain Flu21 (SDHC1_A84I)) [nM]	EC50 ([3]; strain IPO323) [nM]	EC50 ([3]; strain IPO94269) [nM]	EC50 ([3]; strain KO_SDHC1_T1) [nM]	EC50 ([3]; strain KO_SDHC1_T3) [nM]	EC50 ([3]; strain KO_SDHC3_T4) [nM]	EC50 ([3]; strain KO_SDHC3_T13) [nM]	EC50 ([3]; strain pTet::SDHC3_I78A_T1) [nM]	other results
Cn1cc(C(=O)Nc2ccccc2-c2cc(F)c(F)c(F)c2)c(C(F)F)n1 [Fluxapyroxad]	0.8	3.3 ± 0.6	0.8	3.3 ± 0.8	83.2	72.2	142	132	119	110	152	295	818	102	121	438	361	216	144	115	EC50 ([3]; strain pTet::SDHC3_I78A_T5): 265 nM; EC50 ([3]; strain pTet::SDHC3_I78A_T15): 145 nM; EC50 ([3]; strain pTet::SDHC3_I78A_T35): 79.5 nM; EC50 ([3]; strain pTet::SDHC3_T1): 148 nM; EC50 ([3]; strain pTet::SDHC3_T2): 129 nM; EC50 ([3]; strain pTet::SDHC3_T3): 102 nM; EC50 ([3]; strain pTet::SDHC3_T7): 197 nM; IC50 [4]: 4.3 ± 1.1 nM; RF (resistance factor), pTet Repressed (SDHC / altC) [5]: 1.1; IC50 [5]: 4.5 ± 1 nM; RF (resistance factor), D024 SDHC1 KO (altC) [6]: 0.7; IC50 [6]: 3.1 ± 0.4 nM; RF (resistance factor), IPO323_Flu21 (SDHC_A84I) [7]: 1.2; IC50 [7]: 5.1 ± 0.7 nM; RF (resistance factor), 06STD024 (SDHC / altC) [8]: 0.8; IC50 [8]: 3.5 ± 0.3 nM
CC(C)C1C2CCC1c1c(NC(=O)c3cn(C)nc3C(F)F)cccc12 (stereo not drawn) [Isopyrazam]	2.1	1.7 ± 0.4	0.7	0.6 ± 0.2	108	75.5	116	56	109	46.1	66.2	112	785	46	72.8	332	293	83.7	96.7	60.4	EC50 ([3]; strain pTet::SDHC3_I78A_T5): 120 nM; EC50 ([3]; strain pTet::SDHC3_I78A_T15): 81.1 nM; EC50 ([3]; strain pTet::SDHC3_I78A_T35): 17 nM; EC50 ([3]; strain pTet::SDHC3_T1): 195 nM; EC50 ([3]; strain pTet::SDHC3_T2): 284 nM; EC50 ([3]; strain pTet::SDHC3_T3): 175 nM; EC50 ([3]; strain pTet::SDHC3_T7): 233 nM; IC50 [4]: 0.8 ± 0.1 nM; RF (resistance factor), pTet Repressed (SDHC / altC) [5]: 1.5; IC50 [5]: 1.2 ± 0.3 nM; RF (resistance factor), D024 SDHC1 KO (altC) [6]: 2.9; IC50 [6]: 2.4 ± 0.5 nM; RF (resistance factor), IPO323_Flu21 (SDHC_A84I) [7]: 6.4; IC50 [7]: 5.2 ± 2.6 nM; RF (resistance factor), 06STD024 (SDHC / altC) [8]: 3.3; IC50 [8]: 2.6 ± 0.6 nM
